The target of assay [1] is T1, PfPSH2 (Plasmodium falciparum, UniProt A0A1Q1G9G0).
T1 construct: gene PSH2; full length, 880 residues, ~105 kDa, His-tagged (pET28a+), expressed in E. coli BL21 codon Plus, Ni-NTA purified
T1 sequence (A0A1Q1G9G0 1-880): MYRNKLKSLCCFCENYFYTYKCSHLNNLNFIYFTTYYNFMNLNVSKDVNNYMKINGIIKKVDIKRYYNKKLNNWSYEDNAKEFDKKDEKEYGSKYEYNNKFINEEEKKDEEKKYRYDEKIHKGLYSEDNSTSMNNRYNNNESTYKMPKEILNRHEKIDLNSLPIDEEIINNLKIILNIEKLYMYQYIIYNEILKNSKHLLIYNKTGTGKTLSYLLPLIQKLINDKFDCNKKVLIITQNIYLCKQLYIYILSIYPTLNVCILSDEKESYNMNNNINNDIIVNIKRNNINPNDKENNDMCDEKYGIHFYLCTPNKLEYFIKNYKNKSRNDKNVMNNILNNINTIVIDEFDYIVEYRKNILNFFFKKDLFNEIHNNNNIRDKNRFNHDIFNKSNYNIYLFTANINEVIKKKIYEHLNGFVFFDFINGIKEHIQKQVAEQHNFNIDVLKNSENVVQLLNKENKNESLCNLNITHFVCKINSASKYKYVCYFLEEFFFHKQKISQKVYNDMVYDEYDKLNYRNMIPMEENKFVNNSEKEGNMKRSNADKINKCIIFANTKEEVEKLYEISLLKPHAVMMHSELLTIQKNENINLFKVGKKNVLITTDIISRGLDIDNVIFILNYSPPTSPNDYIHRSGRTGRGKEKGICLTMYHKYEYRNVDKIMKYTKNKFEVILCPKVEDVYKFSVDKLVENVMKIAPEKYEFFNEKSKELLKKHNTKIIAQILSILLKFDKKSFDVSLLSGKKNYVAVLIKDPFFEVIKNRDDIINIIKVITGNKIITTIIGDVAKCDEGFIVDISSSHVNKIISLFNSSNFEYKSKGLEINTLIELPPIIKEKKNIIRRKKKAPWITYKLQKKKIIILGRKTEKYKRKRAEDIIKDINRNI
Description: radiolabelled Pi release, TLC. It is filed as biochemical. The note with it: M13mp19 ssDNA or total RNA as stimulator; 1.0 mM MgCl2, pH 8.0, 37 °C; labelled compound ([γ-32P]ATP with 1 mM cold ATP).

The target in assay [2] is T1, PfPSH2. In words: DNA helicase unwinding assay, gel autoradiography. It is filed as biochemical. Conditions: 32P-labelled partial duplex DNA; dATP in place of ATP; 1.0 mM MgCl2, pH 8.0, 37 °C; 80 nM protein.

`Nc1ncnc2c1ncn2[C@@H]1O[C@H](COP(=O)(O)OP(=O)(O)OP(=O)(O)O)[C@@H](O)[C@H]1O` [ATP]: at PfPSH2 [1], the “radiolabelled Pi release, TLC” value was “PfPSH2 shows concentration-dependent ATPase activity in the presence of DNA”. For the compound `Nc1ncnc2c1ncn2[C@H]1C[C@H](O)[C@@H](COP(=O)(O)OP(=O)(O)OP(=O)(O)O)O1` [dATP], the “DNA helicase unwinding assay, gel autoradiography” value at PfPSH2 [2] is “PfPSH2 prefers ATP and dATP for unwinding the duplex substrate”.
